Assay results from patent publication USPP13279P2, “Mint plant named ‘Saksham’” (Council of Scientific and Industrial Research, priority 2000, dated 2002).

Tested on: in vitro regenerates (shoots) of Mentha arvensis ‘Himalaya’ somaclones
Test: Menthol tolerance/toxicity test of in vitro regenerates in MS based medium containing menthol
Assay type: cell-based
Text: The applicants used the plant ‘Himalaya’ (U.S. Plant Pat. No. 10,935), an elite mint genotype for large scale screening of in vitro raised clones (Khanuja S P S, Shasany A K, Dhawan S, Sushil Kumar, 1998, Rapid procedure for isolating somaclones of altered genotypes in Mentha arvensis. J medicinal and Aromatic Plant Sciences 20:359-361) to select clones tolerant to high menthol concentration in the medium (An efficient in vitro selection procedure for large scale screening of mint clones to isolate high menthol genotypes. Khanuja et al, Procedure patent pending, 1999).
While testing the tolerance of in vitro regenerates in presence of menthol in the MS based medium (Murashige T and Skoog F, 1962, A revised medium for rapid growth and bioassay with tobacco tissue cultures; Physiol. Planta. 15 473-497), the initial toxicity symptoms were first observed at the menthol concentration of 40 μg ml^−1 menthol after 7 days. […] Here it was immediate chlorophyll loss and irreversible wilting of the shoots, non-rescuable even by culturing these regenerates in normal medium without menthol. Lowest survival was detected at a concentration of 70 μg ml^−1, where only 1% shoots could survive. […] Ultimately 36, clones were selected for tolerance at 70 μg ml^−1 menthol by screening about 2950 clones. These were transferred to field for evaluation in a plant test area at Lucknow, India. […]

CC1CCC(C(C)C)C(O)C1 (centres unmarked) [menthol]
menthol concentration tolerated in the culture medium (clone GRB-30 (‘Saksham’), retesting in vitro): 80 µg/mL | shoots that could survive (lowest survival) (menthol 70 μg ml^−1 in the medium): 1%
